Like-named read-outs stand apart in the source and are kept apart here.
How the values were obtained:
ABCC2 = ABCC2 (Homo sapiens, UniProt Q92887); set-up: expressed in transfected cells; host or cells: MDCKII-ABCC2 single-transfected cells (membrane vesicles); conditions: BSP: Cui et al., 2001; CCK-8: Letschert et al., 2005; cited from earlier work
OATP1B1 [1] = molecular target: T1, OATP1B1 (Homo sapiens, UniProt Q9Y6L6); conditions: BSP uptake, background section; cited from earlier work
T1 sequence (Q9Y6L6 1-691): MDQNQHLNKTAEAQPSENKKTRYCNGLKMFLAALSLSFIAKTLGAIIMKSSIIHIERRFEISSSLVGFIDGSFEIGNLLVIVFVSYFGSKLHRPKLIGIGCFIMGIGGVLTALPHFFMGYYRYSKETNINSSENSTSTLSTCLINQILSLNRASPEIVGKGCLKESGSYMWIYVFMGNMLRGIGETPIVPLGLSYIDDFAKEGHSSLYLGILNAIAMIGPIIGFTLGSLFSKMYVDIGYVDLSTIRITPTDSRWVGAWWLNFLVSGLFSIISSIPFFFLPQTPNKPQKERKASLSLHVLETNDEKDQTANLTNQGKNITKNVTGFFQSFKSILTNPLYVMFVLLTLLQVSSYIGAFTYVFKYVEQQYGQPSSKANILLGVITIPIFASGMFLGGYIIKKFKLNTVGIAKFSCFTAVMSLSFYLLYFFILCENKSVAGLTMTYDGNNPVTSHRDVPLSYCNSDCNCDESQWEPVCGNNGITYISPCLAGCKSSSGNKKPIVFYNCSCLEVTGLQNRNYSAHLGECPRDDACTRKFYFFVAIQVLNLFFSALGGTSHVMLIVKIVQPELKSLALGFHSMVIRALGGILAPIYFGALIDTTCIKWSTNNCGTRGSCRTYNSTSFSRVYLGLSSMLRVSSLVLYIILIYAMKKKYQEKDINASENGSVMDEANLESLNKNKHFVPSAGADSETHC

[2] = tested on: OATP1B1, OATP1B3, and OATP2B1; test: Uptake (intracellular accumulation) kinetics in ABCC2/OATP1B1/1B3/2B1 quadruple-transfected MDCKII cells; assay type: in vitro ADME, human; conditions: for Km: human
Procedure: (§1) (a) MDCKII cells were grown on ThinCerts (24-mm diameter, pore size 0.4 μm, pore density 1×10^8 per cm^2) and induced with butyrate as mentioned above. The cells were washed in prewarmed (37° C.) transport buffer (142 mM NaCl, 5 mM KCl, 1 mM KH2PO4, 1.2 mM MgSO4, 1.5 mM CaCl2, 5 mM glucose, and 12.5 mM HEPES, pH 7.3). The ^3H-labeled substrate was dissolved in transport buffer and added either to the apical or to the basolateral compartment at the concentration indicated. After incubation at 37° C., the radioactivity in the opposite compartment was measured by sampling aliquots from the apical or basolateral compartment. Cells were washed 2 times with ice-cold transport buffer containing 0.5% bovine serum albumin and 3 times in ice-cold transport buffer. Intracellular accumulation of radioactivity was calculated by lyzing the cells with 0.2% sodium dodecyl sulfate (SDS) and measuring the radioactivity in the lysate.

OATP1B1 [3] = molecular target: T1, OATP1B1; conditions: cRNA-injected Xenopus laevis oocytes; cited from earlier work
OATP2B1 [4] = molecular target: T2, OATP2B1 (Homo sapiens, UniProt O94956); test: Uptake (intracellular accumulation) kinetics in ABCC2/OATP2B1 double-transfected MDCKII cells; assay type: in vitro ADME; set-up: expressed in transfected cells; host or cells: MDCKII (canine kidney) ABCC2 single-transfectant, further transfected with pcDNA3.1/Hygro(-)-OATP2B1; conditions: cell line ABCC2-OATP2B1; intracellular accumulation of 3H-labeled substrate
T2 sequence (O94956 1-709): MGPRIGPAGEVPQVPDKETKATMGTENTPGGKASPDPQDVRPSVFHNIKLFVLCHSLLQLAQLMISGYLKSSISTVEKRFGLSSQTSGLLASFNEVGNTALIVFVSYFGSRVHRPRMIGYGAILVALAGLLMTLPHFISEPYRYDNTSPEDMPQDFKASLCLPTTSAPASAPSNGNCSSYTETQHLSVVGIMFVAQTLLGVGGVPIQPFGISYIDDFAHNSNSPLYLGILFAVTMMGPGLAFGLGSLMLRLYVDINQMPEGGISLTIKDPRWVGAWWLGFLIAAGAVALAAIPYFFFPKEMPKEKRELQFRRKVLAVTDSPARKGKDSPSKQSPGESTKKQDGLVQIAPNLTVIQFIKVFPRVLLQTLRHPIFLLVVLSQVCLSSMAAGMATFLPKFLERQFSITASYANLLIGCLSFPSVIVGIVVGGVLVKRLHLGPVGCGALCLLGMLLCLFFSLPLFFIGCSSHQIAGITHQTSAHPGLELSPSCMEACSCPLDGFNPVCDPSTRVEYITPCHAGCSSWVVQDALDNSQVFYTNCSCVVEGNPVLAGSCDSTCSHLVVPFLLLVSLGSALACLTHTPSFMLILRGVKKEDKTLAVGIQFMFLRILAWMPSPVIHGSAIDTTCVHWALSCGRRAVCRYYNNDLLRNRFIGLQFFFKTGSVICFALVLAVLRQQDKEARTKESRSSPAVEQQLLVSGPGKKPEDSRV
Procedure: as §1, with “The cells were washed in prewarmed (37° C.) transport buffer (142 mM NaCl, 5 mM KCl, 1 mM KH2PO4, 1.2 mM MgSO4, 1.5 mM CaCl2, 5 mM glucose, and 12.5 mM HEPES, pH 7.3).” left out

OATP2B1 [5] = molecular target: T2, OATP2B1; conditions: cRNA-injected Xenopus laevis oocytes; cited from earlier work

Sequence of ABCC2 (Q92887 whole entry): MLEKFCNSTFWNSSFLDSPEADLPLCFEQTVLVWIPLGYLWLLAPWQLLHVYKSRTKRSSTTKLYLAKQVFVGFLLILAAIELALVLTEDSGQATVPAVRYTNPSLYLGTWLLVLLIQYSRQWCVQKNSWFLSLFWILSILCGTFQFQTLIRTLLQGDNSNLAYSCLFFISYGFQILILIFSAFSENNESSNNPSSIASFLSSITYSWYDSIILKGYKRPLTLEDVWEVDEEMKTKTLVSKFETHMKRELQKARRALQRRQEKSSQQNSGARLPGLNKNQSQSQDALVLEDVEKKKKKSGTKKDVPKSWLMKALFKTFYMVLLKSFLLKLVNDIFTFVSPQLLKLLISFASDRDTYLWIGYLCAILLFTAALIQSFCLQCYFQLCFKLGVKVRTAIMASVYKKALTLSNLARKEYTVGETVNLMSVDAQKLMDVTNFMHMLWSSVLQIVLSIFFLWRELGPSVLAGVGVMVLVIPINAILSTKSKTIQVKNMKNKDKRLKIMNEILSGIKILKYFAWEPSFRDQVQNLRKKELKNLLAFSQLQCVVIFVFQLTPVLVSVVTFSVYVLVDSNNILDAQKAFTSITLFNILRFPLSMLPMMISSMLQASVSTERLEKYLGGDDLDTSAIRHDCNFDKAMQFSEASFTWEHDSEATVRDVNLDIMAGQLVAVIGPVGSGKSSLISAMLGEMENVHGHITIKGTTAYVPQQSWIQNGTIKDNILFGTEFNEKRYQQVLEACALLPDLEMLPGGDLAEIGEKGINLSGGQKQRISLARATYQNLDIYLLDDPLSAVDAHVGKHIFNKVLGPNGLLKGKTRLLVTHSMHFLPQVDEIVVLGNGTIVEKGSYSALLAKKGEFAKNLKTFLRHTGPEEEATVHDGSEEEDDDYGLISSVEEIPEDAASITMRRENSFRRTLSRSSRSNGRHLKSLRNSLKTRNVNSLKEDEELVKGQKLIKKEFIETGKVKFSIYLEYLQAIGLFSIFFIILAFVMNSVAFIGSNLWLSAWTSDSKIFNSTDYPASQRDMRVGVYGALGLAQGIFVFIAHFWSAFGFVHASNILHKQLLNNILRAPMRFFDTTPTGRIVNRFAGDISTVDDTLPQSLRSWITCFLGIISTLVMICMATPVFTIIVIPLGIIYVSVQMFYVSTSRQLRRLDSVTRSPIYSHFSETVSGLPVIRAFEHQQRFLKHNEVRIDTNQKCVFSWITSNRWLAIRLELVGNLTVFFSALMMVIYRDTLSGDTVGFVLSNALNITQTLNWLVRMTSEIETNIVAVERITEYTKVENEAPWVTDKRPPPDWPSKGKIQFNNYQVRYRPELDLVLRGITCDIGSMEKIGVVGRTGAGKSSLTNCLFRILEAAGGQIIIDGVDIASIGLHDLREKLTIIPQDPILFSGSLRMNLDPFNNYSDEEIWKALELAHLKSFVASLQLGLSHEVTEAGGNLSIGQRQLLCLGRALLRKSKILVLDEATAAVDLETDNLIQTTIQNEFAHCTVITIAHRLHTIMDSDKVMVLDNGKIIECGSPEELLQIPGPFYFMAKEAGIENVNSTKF

O=C1OC(c2ccc(O)c(S(=O)(=O)O)c2)(c2ccc(O)c(S(=O)(=O)O)c2)c2c(Br)c(Br)c(Br)c(Br)c21 [Bromosulfophthalein]
Km (ABCC2): 12 µM
Km (OATP1B1 [1]): 0.14 µM
maximal velocity ([2]; ABCC2/OATP1B1/1B3/2B1 quadruple-transfectants): 197.8 pmol×mg protein×min^−1
Vmax ([2]; cell line ABCC2-OATP1B1/1B3/2B1 (quadruple-transfectant), intracellular accumulation of 3H-labeled substrate): 197.8 ± 3.0 pmol · mg protein^−1 · min^−1
Km ([2]; pH 7.3, cell line ABCC2-OATP1B1/1B3/2B1 (quadruple-transfectant), intracellular accumulation of 3H-labeled substrate, read-out: Km): 4.8 µM
Km ([2]; pH 7.3, summary bound for the OATPs, referring to Table 1, read-out: Km values for the OATPs): < 5 µM
Km (OATP1B1 [3]): 0.3 µM
Vmax (OATP2B1 [4]): 52.8 ± 8.6 pmol · mg protein^−1 · min^−1
Km (OATP2B1 [5]): 0.7 µM
